{"source": "patent US7674620B2", "about": "“Derivation of terminally differentiated dopaminergic neurons from human embryonic stem cells” (Reliance Life Sciences Pvt. Ltd., priority 2003, dated 2010)", "key": {"[1]": {"system": "embryonic stem cell-derived dopaminergic neurons", "assay": "Intracellular dopamine in cell lysates by RP-HPLC", "format": "cell-based, human", "settings": "for Dopamine concentration in cell lysates by HPLC: 56 mM KCl", "procedure": "One definitive characteristic of a dopaminergic neuron is the production of dopamine. Therefore, the functional capacity of embryonic stem cell-derived dopaminergic neurons to produce dopamine was evaluated by directly measuring the intracellular dopamine levels using Reverse Phase HPLC (RP-HPLC). The concentration of dopamine detected in each sample was determined by comparison with a standard solution of dopamine injected into the column immediately before and after each experiment.\n(§1) To begin, cells were collected at different stages of the disclosed method: undifferentiated ES cells, embryoid bodies, Nestin-positive neuroprogenitor cells, NCAM-positive cells, and differentiated cells isolated after 7, 22, and 37 days of differentiation in Neurobasal medium. Before collection, the cells differentiated in Neurobasal medium were first stimulated to induce dopamine secretion by the addition of 56 mM KCl in HBSS for 15 minutes. Approximately 5×10^6 cells were trypsinised and pelleted by centrifugation. The cells were then sonicated in cold 1N perchloric acid with antioxidants (0.2 g/l sodium metabisulphite), and centrifuged at 15,000 rpm/min for 20 minutes at 4° C. The supematent was extracted and stored at −70° C. for subsequent determination of the intracellular dopamine concentration by RP-HPLC. Dopamine levels were determined in the cell lysates and culture supematent (48 hrs after the last medium change). The culture supematent was immediately stabilized with 7.5% orthophosphoric acid and sodium metabisulphite."}, "[2]": {"system": "embryonic stem cell-derived dopaminergic neurons", "assay": "Dopamine release into conditioned medium by RP-HPLC", "format": "cell-based, human", "settings": "56 mM for 15 minutes, 7, 22, 37 days of differentiation", "procedure": "The cells were stimulated with 56 mM KCl for 15 minutes to induce secretion of dopamine; the culture supernatant was stabilized with 7.5% orthrophosphoric acid and sodium metabisulphite before analysis by RP-HPLC.\nas §1"}, "[3]": {"system": "embryonic stem cell-derived dopaminergic neurons", "assay": "Intracellular dopamine in cell lysates by RP-HPLC", "format": "cell-based, human", "settings": "cell cultures incubated with the neurotoxin"}, "[4]": {"system": "neuroprogenitor cells derived from human embryonic stem cells", "assay": "Differentiation of neuroprogenitor cells into TH positive (dopaminergic) neurons, immunofluorescence", "format": "cell-based", "settings": "present in the Neurobasal medium", "description": "Development of dopaminergic neurons in vivo depends on the regulated action of extracellular signaling molecules. These molecules activate a cascade of transcription factors with lineage-restricted expression. These transcription factors are responsible for increasing the expression of a specific set of genes involved in the development of the dopaminergic phenotype. To encourage the expanded neuroprogenitors cells generated using the above protocol into functional dopaminergic neurons, the growth factors bFGF and EGF were first withdrawn from the cells. Next, differentiation of the neuroprogenitors cells into dopaminergic neurons was induced by culturing the cells in Neurobasal medium for 30-50 days. […]\nThe differentiated neuronal cell types generated according to the present disclosure were evaluated both by the overall morphology of the cells, as well as the phenotypes identified by immunoflourescence. […]\nThe differentiated cells were also analyzed by double-labeling the cells with primary antibodies to TH (green), along with MAP-2, DAT, Nurr-1, β-Tubulin, FITC-labeled secondary antibodies (Texas red) respectively (FIG. 8). […] The cell density of dopaminergic neurons was quantified by counting the numbers of TH-positive cells and MAP-2-positive cells per field in randomly selected fields using a 40× objective lens. The percent proportion of TH-positive cells was calculated (FIG. 9). […]"}}}
{"compound": "[Cl-].[K+]", "note": "[KCl]", "values": [{"measurement": "Dopamine concentration in cell lysates by HPLC", "setting": "[1]; 7 d, line #3, after 'Addition of growth factors'", "value": 5.5, "unit": "µg/mL"}, {"measurement": "Dopamine concentration in cell lysates by HPLC", "setting": "[1]; 7 d, line #5, after 'N-acetyl cysteine along with growth factors'", "value": 8.8, "unit": "µg/mL"}, {"measurement": "Dopamine concentration in cell lysates by HPLC", "setting": "[1]; 7 d, line #7, after 'Ascorbic acid along with growth factors'", "value": 6.9, "unit": "µg/mL"}, {"measurement": "Dopamine concentration in cell lysates by HPLC", "setting": "[1]; 22 d, line #3, after 'Addition of growth factors'", "value": 22, "unit": "µg/mL"}, {"measurement": "Dopamine concentration in cell lysates by HPLC", "setting": "[1]; 22 d, line #5, after 'N-acetyl cysteine along with growth factors'", "value": 30.9, "unit": "µg/mL"}, {"measurement": "Dopamine concentration in cell lysates by HPLC", "setting": "[1]; 22 d, line #7, after 'Ascorbic acid along with growth factors'", "value": 5.5, "unit": "µg/mL"}, {"measurement": "Dopamine concentration in cell lysates by HPLC", "setting": "[1]; 37 d, line #3, after 'Addition of growth factors'", "value": 7.2, "unit": "µg/mL"}, {"measurement": "Dopamine concentration in cell lysates by HPLC", "setting": "[1]; 37 d, line #5, after 'N-acetyl cysteine along with growth factors'", "value": 10, "unit": "µg/mL"}, {"measurement": "Dopamine concentration in cell lysates by HPLC", "setting": "[1]; 37 d, line #7, after 'Ascorbic acid along with growth factors'", "value": 10, "unit": "µg/mL"}, {"measurement": "dopamine release into the conditioned medium (FIG. 14)", "setting": "[2]", "value": "causes dopamine release"}, {"measurement": "dopamine release into the conditioned medium (FIG. 14)", "setting": "[2]; listed as KCL", "value": "increase"}]}
{"compound": "CN1CC=C(c2ccccc2)CC1.Cl", "note": "[MPTP, N-methyl-4-phenyl 1,2,3,6-tetrahydropyridine hydrochloride]", "values": [{"measurement": "intracellular dopamine in cell lysates of treated cells (FIG. 13)", "setting": "[1]; 7 days of differentiation", "value": "No dopamine was detected"}, {"measurement": "intracellular dopamine in cell lysates of treated cells (FIG. 13)", "setting": "[1]; 22 days of differentiation", "value": "No dopamine was detected"}, {"measurement": "intracellular dopamine in cell lysates of treated cells (FIG. 13)", "setting": "[1]; 37 days of differentiation", "value": "reduced"}, {"measurement": "dopamine in cell lysates of incubated cell cultures by RP-HPLC", "setting": "[3]", "value": "no dopamine was detected"}]}
{"compound": "IL-1β: Interleukin-1β, growth factor in the Neurobasal medium", "values": [{"measurement": "effect on amount of TH positive neurons", "setting": "[4]", "value": "appears to increase the amount of TH positive neurons"}]}
